# Like-named read-outs stand apart in the source and are kept apart here.
# Tests used:
# [1] = tested on: HIV strain MDR (mutations L100I, K103N, Y181C, E138G, V1791, L2214F, V278V/I and A327A/V in HIV reverse transcriptase); test: microbe, parasite or virus in culture; type: cell-based, HIV-1; conditions: MT4 LTR-EGFP cells, measured three days after infection; for EC50: Human immunodeficiency virus 1, 72 h, read-out: MDR (pEC50), MDR strain (converted); for MDR (pEC50): MDR strain
# Experimental: (§1) The antiviral activity of the compound of the present invention has been evaluated in the presence of wild type HIV and HIV mutants bearing mutations at the reverse transcriptase gene. The activity of the compounds is evaluated using a cellular assay which was performed according to the following procedure.
# (§2) The human T-cell line MT4 is engineered with Green Fluorescent Protein (GFP) and an HIV-specific promoter, HIV-1 long terminal repeat (LTR). This cell line is designated MT4 LTR-EGFP, and can be used for the in vitro evaluation of anti-HIV activity of investigational compounds. In HIV-1 infected cells, the Tat protein is produced which upregulates the LTR promotor and finally leads to stimulation of the GFP reporter production, allowing to measure ongoing HIV-infection fluorometrically.
# (§3) Effective concentration values such as 50% effective concentration (EC50) can be determined and are usually expressed in μM. An EC50 value is defined as the concentration of test compound that reduces the fluorescence of HIV-infected cells by 50%. The 50% cytotoxic concentration (CC50 in μM) is defined as the concentration of test compound that reduces fluorescence of the mock-infected cells by 50%. The ratio of CC50 to EC50 is defined as the selectivity index (SI) and is an indication of the selectivity of the anti-HIV activity of the inhibitor. The ultimate monitoring of HIV-1 infection and cytotoxicity is done using a scanning microscope. Image analysis allows very sensitive detection of viral infection. Measurements are done before cell necrosis, which usually takes place about five days after infection, in particular measurements are performed three days after infection.
# (§4) The columns IIIB, L100I, etc. in the table list the pEC50 values against various strains IIIB, L100I, etc.
# “MDR” refers to a strain that contains mutations L100I, K103N, Y181C, E138G, V1791, L2214F, V278V/I and A327A/V in HIV reverse transcriptase.
# [2] = tested on: HIV mutant strain K103N + Y181C; test: microbe, parasite or virus in culture; type: cell-based, HIV-1; conditions: MT4 LTR-EGFP cells, measured three days after infection; for EC50: Human immunodeficiency virus 1, 72 h, read-out: K103N + Y181C (pEC50), strain K103N + Y181C (converted); for K103N + Y181C (pEC50): strain K103N + Y181C
# Experimental: as §1, §2, §3, §4
# [3] = tested on: HIV mutant strain L100I + K103N; test: microbe, parasite or virus in culture; type: cell-based, HIV-1; conditions: MT4 LTR-EGFP cells, measured three days after infection; for EC50: Human immunodeficiency virus 1, 72 h, read-out: L100I + K103N (pEC50), strain L100I + K103N (converted); for L100I + K103N (pEC50): strain L100I + K103N
# Experimental: as §1, §2, §3, §4
# [4] = tested on: HIV mutant strain Y181C; test: microbe, parasite or virus in culture; type: cell-based, HIV-1; conditions: MT4 LTR-EGFP cells, measured three days after infection; for EC50: Human immunodeficiency virus 1, 72 h, read-out: Y181C (pEC50), strain Y181C (converted); for Y181C (pEC50): strain Y181C
# Experimental: as §1, §2, §3, §4
# [5] = tested on: wild type HIV strain IIIB; test: Cellular anti-HIV assay in MT4 LTR-EGFP cells (GFP fluorescence), strain IIIB; cytotoxicity in mock-infected MT4 CMV-EGFP cells for the selectivity index; type: cell-based, HIV-1; conditions: for EC50: read-out: IIIB (pEC50) (converted)
# Experimental: as §1, §2
# Analogously, MT4 cells are engineered with GFP and the constitutional cytomegalovirus (CMV) promotor. This cell line is designated MT4 CMV-EGFP, and can be used for the in vitro evaluation of cytotoxicity of investigational compounds. In this cell line, GFP levels are comparably to those of infected MT4 LTR-EGFP cells. Cytotoxic investigational compounds reduce GFP levels of mock-infected MT4 CMV-EGFP cells.
# as §3, §4
# Strain IIIB is wild type HIV strain.
# [6] = Human immunodeficiency virus 1, IIIB, 72 h, wild type HIV strain IIIB, MT4 LTR-EGFP cells, measured three days after infection
# [7] = wild type HIV strain IIIB, MT4 LTR-EGFP cells, measured three days after infection
SMILES,EC50 [1] [nM],EC50 [2] [nM],EC50 [3] [nM],EC50 [4] [nM],"EC50 ([5]; Human immunodeficiency virus 1, 72 h, wild type HIV strain IIIB, MT4 LTR-EGFP cells, measured three days after infection) [nM]",melting point [°C],"EC50 [5, 6] [nM]",MDR (pEC50) [1],K103N + Y181C (pEC50) [2],L100I + K103N (pEC50) [3],Y181C (pEC50) [4],"IIIB (pEC50) [5, 7]",IIIB (pEC50) [5]
Cc1cc(/C=C/C#N)cc(C)c1Nc1nc(Nc2ccc(C#N)cc2)ncc1C(O)c1ccccn1 (centres unmarked) [Compound 2],813,3.24,3.47,8.51,3.47,244,–,–,–,–,–,–,–
Cc1cc(/C=C/C#N)cc(C)c1Nc1nc(Nc2ccc(C#N)cc2)ncc1C(O)c1cccnc1 (centres unmarked) [Compound 4],355,5.75,3.47,5.37,–,–,1.78,–,–,–,–,–,–
COc1ccccc1C(O)c1cnc(Nc2ccc(C#N)cc2)nc1Nc1c(C)cc(/C=C/C#N)cc1C (centres unmarked) [Compound 5],646,18.6,8.51,8.51,–,–,4.07,–,–,–,–,–,–
Cc1csc(CC(O)c2cnc(Nc3ccc(C#N)cc3)nc2Nc2c(C)cc(/C=C/C#N)cc2C)n1 (centres unmarked) [Compound 6],2240,95.5,18.6,24.5,–,–,3.72,–,–,–,–,–,–
Cc1cnc(C(O)c2cnc(Nc3ccc(C#N)cc3)nc2Nc2c(C)cc(/C=C/C#N)cc2C)s1 (centres unmarked) [Compound 7],1620,47.9,14.8,21.4,–,–,11.5,–,–,–,–,–,–
Cc1csc(C(O)c2cnc(Nc3ccc(C#N)cc3)nc2Nc2c(C)cc(/C=C/C#N)cc2C)n1 (centres unmarked) [Compound 8],209,9.55,4.27,14.5,–,–,3.89,–,–,–,–,–,–
Cc1cc(/C=C/C#N)cc(C)c1Nc1nc(Nc2ccc(C#N)cc2)ncc1C(O)C1CCCC1 (centres unmarked) [Compound 9],6610,759,158,245,–,–,17,–,–,–,–,–,–
Cc1cc(/C=C/C#N)cc(C)c1Nc1nc(Nc2ccc(C#N)cc2)ncc1C(O)c1cncs1 (centres unmarked) [Compound 10],145,4.07,2.63,3.8,–,–,3.02,–,–,–,–,–,–
Cc1cc(/C=C/C#N)cc(C)c1Nc1nc(Nc2ccc(C#N)cc2)ncc1C(O)c1nccn1C (centres unmarked) [Compound 11],832,7.24,3.72,6.03,–,–,2.57,–,–,–,–,–,–
C=CC(O)c1cnc(Nc2ccc(C#N)cc2)nc1Nc1c(C)cc(/C=C/C#N)cc1C (centres unmarked) [Compound 12],–,–,–,–,–,–,–,6.37,8.38,8.86,8.44,8.91,–
Cc1cc(/C=C/C#N)cc(C)c1Nc1nc(Nc2ccc(C#N)cc2)ncc1C(O)C#Cc1cncn1C (centres unmarked) [Compound 13],537,38.9,63.1,19.5,–,–,3.63,–,–,–,–,–,–
Cc1cc(/C=C/C#N)cc(C)c1Nc1nc(Nc2ccc(C#N)cc2)ncc1C(O)c1nc2ccccc2s1 (centres unmarked) [Compound 14],6310,100,70.8,75.9,–,–,12.6,–,–,–,–,–,–
Cc1cc(/C=C/C#N)cc(C)c1Nc1nc(Nc2ccc(C#N)cc2)ncc1C(O)c1scnc1Br (centres unmarked) [Compound 15],468,18.2,7.76,17.8,–,–,6.76,–,–,–,–,–,–
Cc1cc(/C=C/C#N)cc(C)c1Nc1nc(Nc2ccc(C#N)cc2)ncc1C(O)c1cn2ccnc2s1 (centres unmarked) [Compound 16],7240,95.5,63.1,89.1,–,–,25.1,–,–,–,–,–,–
Cc1cc(/C=C/C#N)cc(C)c1Nc1nc(Nc2ccc(C#N)cc2)ncc1C(O)c1csc2nc(Cl)cn12 (centres unmarked) [Compound 18],2190,107,30.9,79.4,–,–,18.2,–,–,–,–,–,–
Cc1cc(/C=C/C#N)cc(C)c1Nc1nc(Nc2ccc(C#N)cc2)ncc1C(O)(c1nccs1)c1nccs1 [Compound 21],3310,85.1,23.4,56.2,–,–,18.2,–,–,–,–,–,–
CCC(O)(c1nccs1)c1cnc(Nc2ccc(C#N)cc2)nc1Nc1c(C)cc(/C=C/C#N)cc1C (centres unmarked) [Compound 22],–,–,–,–,–,–,–,5.66,7.03,7.51,7.21,7.75,–
Cc1cc(/C=C/C#N)cc(C)c1Nc1nc(Nc2ccc(C#N)cc2)ncc1C(C)(O)c1nccs1 (centres unmarked) [Compound 25],–,–,–,–,–,–,–,6.40,7.62,7.85,7.74,7.75,–
Cc1cc(/C=C/C#N)cc(C)c1Nc1nc(Nc2ccc(C#N)cc2)ncc1C(O)(c1nccs1)C(C)C (centres unmarked) [Compound 26],–,–,–,–,–,–,–,5.12,6.24,6.33,6.66,7.00,–
C=CC(O)(c1nccs1)c1cnc(Nc2ccc(C#N)cc2)nc1Nc1c(C)cc(/C=C/C#N)cc1C (centres unmarked) [Compound 27],–,–,–,–,–,–,–,6.27,7.54,7.84,7.70,–,7.70
